This is an account of results in US11040031B2, “Pyrazole derivatives as MALT1 inhibitors” (Janssen Pharmaceutica NV, priority 2018, dated 2021).

Like-named read-outs stand apart in the source and are kept apart here.

The target of assay [1] is T1, full-length MALT1 protein (Strep-MALT1(1-824)-His) (Homo sapiens, UniProt Q9UDY8).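 Also: fluorogenic LRSR-AMC substrate cleavage by MALT1, 50 min compound preincubation then 4 h reaction at RT, 11-point dilution from 30 µM, scaled between enzyme-free and untreated enzyme controls.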
T1 sequence (Q9UDY8 1-824): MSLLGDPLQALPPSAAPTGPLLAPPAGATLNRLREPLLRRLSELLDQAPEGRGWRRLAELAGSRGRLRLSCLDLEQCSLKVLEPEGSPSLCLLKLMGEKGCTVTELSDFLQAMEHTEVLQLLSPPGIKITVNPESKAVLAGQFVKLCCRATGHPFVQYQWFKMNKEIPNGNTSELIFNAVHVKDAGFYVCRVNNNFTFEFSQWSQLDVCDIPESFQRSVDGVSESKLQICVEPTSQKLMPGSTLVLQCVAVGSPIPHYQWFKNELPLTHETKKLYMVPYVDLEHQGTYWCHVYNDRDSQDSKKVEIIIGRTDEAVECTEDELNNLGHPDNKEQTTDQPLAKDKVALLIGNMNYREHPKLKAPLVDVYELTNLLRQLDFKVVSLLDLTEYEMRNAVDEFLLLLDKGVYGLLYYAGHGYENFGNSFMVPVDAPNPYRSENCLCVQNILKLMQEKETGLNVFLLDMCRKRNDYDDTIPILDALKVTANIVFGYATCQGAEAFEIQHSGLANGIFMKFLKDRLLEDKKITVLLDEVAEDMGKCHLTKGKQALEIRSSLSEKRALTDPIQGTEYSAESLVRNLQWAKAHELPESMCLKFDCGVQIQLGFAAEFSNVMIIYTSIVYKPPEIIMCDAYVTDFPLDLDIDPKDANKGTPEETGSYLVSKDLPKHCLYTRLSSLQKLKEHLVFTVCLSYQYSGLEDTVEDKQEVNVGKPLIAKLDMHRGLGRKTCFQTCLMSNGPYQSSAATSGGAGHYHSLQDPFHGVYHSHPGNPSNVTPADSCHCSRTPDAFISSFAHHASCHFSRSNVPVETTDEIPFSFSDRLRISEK
Briefly: biochemical.

Assay [2] has as its system OCI-Ly3 ABC-DLBCL cell line. As to the kind of experiment: 4-day proliferation assay OCI-Ly3. It counts as cell-based. The following applies: Homo sapiens, read-out: Anti-proliferation: OCI-LY-3 IC50. The protocol: To assess anti-proliferative effects, MALT1 inhibitor test compounds were tested in 4-day proliferation assays using three different DLBCL cell lines.
Cells should be kept between 0.5-2.5 million cells per mL during culturing and cells should be supplemented every 2-3 days with fresh 50 μM beta-mercaptoenthanol. No beta-mercaptoethanol is used during the proliferation assay. OCI-Ly7 cells were propagated in IMDM (ThermoFisher) supplemented with 10% fetal bovine serum (HyClone), 2 mM L-glutamine (Sigma Aldrich) and 50 μg/mL Gentamycin. Cell passage numbers should not exceed 30.
10,000 TMD8, 10,000 OCI-Ly3 or 2,000 OCI-Ly7 cells were seeded in 100 μL media per well and incubated for 4 days at 37° C. and 5% CO2. Cell plating numbers were chosen based on growth curves to ensure linear cell growth. After 4 days of incubation 50 μl CellTiterGLO reagent (Promega) were added to each well and luminescence was measured on the Envision after 10 min of incubation at room temperature.

Assay [3] concerns Secretion of IL6 by OCI-LY3 ABC-DLBCL cells. Briefly: Human IL6 Mesoscale assay (OCI-LY3). The following applies: read-out: Human IL6 Mesoscale assay (OCI-LY3). In kind it is cell-based. The essentials: (§1)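 TMD8 or OCI-LY3 ABC-DLBCL cells incubated with compound 24 h at 37° C without beta-mercaptoethanol. Secreted IL6 and IL10 in supernatant quantified by MSD electrochemiluminescence immunoassay; DMSO wells define maximum signal.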

Assay [4] deals with Secretion of IL10 by OCI-LY3 ABC-DLBCL cells. Briefly: Human IL10 Mesoscale assay (OCI-LY3). It counts as cell-based. The following applies: read-out: Human IL10 Mesoscale assay (OCI-LY3). An outline of the steps:
as §1

Setting [5] is: 96 h, 10,000 OCI-Ly3 cells per well, 4 days, CellTiterGLO.
[6] abbreviates: OCI-LY3 cells, 24 h incubation, supernatant, MSD V-Plex.

On to `N#Cc1cc(NC(=O)c2cnn(-c3ccc(F)cc3Br)c2C(F)(F)F)cnc1-n1nccn1` [Cpd 50, 1-(2-bromo-4-fluorophenyl)-N-(5-cyano-6-(2H-1,2,3-triazol-2-yl)pyridin-3-yl)-5-(trifluoromethyl)-1H-pyrazole-4-carboxamide], for which the IC50 in assay [1] amounted to 54 nM; in assay [2] (setting [5]), 1070 nM.
Turning to `N#Cc1cc(NC(=O)c2cnn(-c3ccc(F)cc3Cl)c2C(F)(F)F)cnc1-n1nccn1` [Cpd 51, 1-(2-chloro-4-fluorophenyl)-N-(5-cyano-6-(2H-1,2,3-triazol-2-yl)pyridin-3-yl)-5-(trifluoromethyl)-1H-pyrazole-4-carboxamide], the IC50 in assay [3] (setting [6]) was determined as 98 nM; in assay [1] it was 54 nM; in assay [2] (setting [5]) it was 851 nM; in assay [4] (setting [6]) it was 71 nM.
Take `O=C(Nc1cnc(-n2nccn2)c(Cl)c1)c1cnn(-c2ccnc3c2OCO3)c1C(F)(F)F` [Cpd 52, 1-([1,3]dioxolo[4,5-b]pyridin-7-yl)-N-(5-chloro-6-(2H-1,2,3-triazol-2-yl)pyridin-3-yl)-5-(trifluoromethyl)-1H-pyrazole-4-carboxamide]: the IC50 in assay [3] (setting [6]) came to 120 nM; in assay [1], 55 nM; in assay [2] (setting [5]), 2400 nM; in assay [4] (setting [6]), 56 nM.
For `COc1cc(F)ccc1-n1ncc(C(=O)Nc2cnc(-n3nccn3)c(C#N)c2)c1C(F)(F)F` [Cpd 54, N-(5-cyano-6-(2H-1,2,3-triazol-2-yl)pyridin-3-yl)-1-(4-fluoro-2-methoxyphenyl)-5-(trifluoromethyl)-1H-pyrazole-4-carboxamide], the IC50 stood at 89 nM in assay [1] and 1620 nM in assay [2] (setting [5]).
In the case of `Cc1ccccc1-n1ncc(C(=O)Nc2cnc(-n3nccn3)c(C#N)c2)c1C(F)(F)F` [Cpd 55, N-(5-cyano-6-(2H-1,2,3-triazol-2-yl)pyridin-3-yl)-1-(o-tolyl)-5-(trifluoromethyl)-1H-pyrazole-4-carboxamide], the IC50 in assay [1] was 62 nM; in assay [2] (setting [5]), 3390 nM.
Turning to `N#Cc1cc(NC(=O)c2cnn(-c3ccnc(N)c3Cl)c2C(F)(F)F)cnc1-n1nccn1` [Cpd 56, 1-(2-amino-3-chloropyridin-4-yl)-N-(5-cyano-6-(2H-1,2,3-triazol-2-yl)pyridin-3-yl)-5-(trifluoromethyl)-1H-pyrazole-4-carboxamide], the IC50 in assay [3] (OCI-Ly3, 24 h) amounted to 389 nM; in assay [1], 78 nM; in assay [2] (OCI-Ly3, 96 h), 5010 nM; in assay [4] (OCI-Ly3, 24 h), 363 nM.
In the case of `Nc1nccc(-n2ncc(C(=O)Nc3cnc(-n4nccn4)c(Cl)c3)c2C(F)(F)F)c1Cl` [Cpd 57, 1-(2-amino-3-chloropyridin-4-yl)-N-(5-chloro-6-(2H-1,2,3-triazol-2-yl)pyridin-3-yl)-5-(trifluoromethyl)-1H-pyrazole-4-carboxamide], the IC50 in assay [3] (OCI-Ly3, 24 h) turned out to be 162 nM; in assay [1] it was 107 nM; in assay [2] (OCI-Ly3, 96 h) it was 1200 nM; in assay [4] (OCI-Ly3, 24 h), 117 nM.
As for `O=C(Nc1cnc(-n2nccn2)c(Cl)c1)c1cnn(-c2cccc3c2OC(F)(F)O3)c1C(F)(F)F` [Cpd 58, N-(5-chloro-6-(2H-1,2,3-triazol-2-yl)pyridin-3-yl)-1-(2,2-difluorobenzo[d][1,3]dioxol-4-yl)-5-(trifluoromethyl)-1H-pyrazole-4-carboxamide], the IC50 worked out at 407 nM in assay [3] (setting [6]), 145 nM in assay [1], 7240 nM in assay [2] (setting [5]) and 195 nM in assay [4] (setting [6]).
For the compound `N#Cc1cc(NC(=O)c2cnn(-c3ccc(F)c(F)c3Cl)c2C(F)(F)F)cnc1-n1nccn1` [Cpd 60, 1-(2-chloro-3,4-difluorophenyl)-N-(5-cyano-6-(2H-1,2,3-triazol-2-yl)pyridin-3-yl)-5-(trifluoromethyl)-1H-pyrazole-4-carboxamide], the IC50 turned out to be 178 nM in assay [3] (setting [6]), 71 nM in assay [1], 741 nM in assay [2] (setting [5]) and 151 nM in assay [4] (setting [6]).
In the case of `N#Cc1cc(NC(=O)c2cnn(-c3cccc(F)c3Cl)c2C(F)(F)F)cnc1-n1nccn1` [Cpd 61, 1-(2-chloro-3-fluorophenyl)-N-(5-cyano-6-(2H-1,2,3-triazol-2-yl)pyridin-3-yl)-5-(trifluoromethyl)-1H-pyrazole-4-carboxamide], the IC50 in assay [1] was found to be 78 nM; in assay [2] (setting [5]), 1860 nM.
As for `Cc1cc(F)ccc1-n1ncc(C(=O)Nc2cnc(-n3nccn3)c(C#N)c2)c1C(F)(F)F` [Cpd 64, N-(5-cyano-6-(2H-1,2,3-triazol-2-yl)pyridin-3-yl)-1-(4-fluoro-2-methylphenyl)-5-(trifluoromethyl)-1H-pyrazole-4-carboxamide], the IC50 amounted to 54 nM in assay [1] and 1550 nM in assay [2] (setting [5]).
The matching figures for `O=C(Nc1cnc(-n2nccn2)c(Cl)c1)c1cnn(-c2cccc(F)c2Cl)c1C(F)(F)F` [Cpd 82, 1-(2-chloro-3-fluorophenyl)-N-(5-chloro-6-(2H-1,2,3-triazol-2-yl)pyridin-3-yl)-5-(trifluoromethyl)-1H-pyrazole-4-carboxamide]: 162 nM and 3390 nM.
As for `O=C(Nc1cnc(-n2nccn2)c(Cl)c1)c1cnn(-c2ccc(F)cc2Br)c1C(F)(F)F` [Cpd 83, 1-(2-bromo-4-fluorophenyl)-N-(5-chloro-6-(2H-1,2,3-triazol-2-yl)pyridin-3-yl)-5-(trifluoromethyl)-1H-pyrazole-4-carboxamide], the IC50 is 129 nM in assay [1] and 2240 nM in assay [2] (setting [5]).
As for `Cc1cc(F)cnc1-n1ncc(C(=O)Nc2cnc(-n3nccn3)c(Cl)c2)c1C(F)(F)F` [Cpd 112, N-(5-chloro-6-(2H-1,2,3-triazol-2-yl)pyridin-3-yl)-1-(5-fluoro-3-methylpyridin-2-yl)-5-(trifluoromethyl)-1H-pyrazole-4-carboxamide], the IC50 was determined as 457 nM in assay [1] and 724 nM in assay [2] (OCI-Ly3, 96 h).
As to `O=C(Nc1cnc(-n2nccn2)c(Cl)c1)c1cnn(-c2ccc(F)cc2F)c1C(F)(F)F` [Cpd 117, N-(5-chloro-6-(2H-1,2,3-triazol-2-yl)pyridin-3-yl)-1-(2,4-difluorophenyl)-5-(trifluoromethyl)-1H-pyrazole-4-carboxamide], the IC50 in assay [1] stood at 288 nM; in assay [2] (setting [5]), 407 nM.
The matching figures for `N#Cc1cc(NC(=O)c2cnn(-c3cccc4c3CCNC4)c2C(F)(F)F)cnc1-n1nccn1` [Cpd 129, N-(5-cyano-6-(2H-1,2,3-triazol-2-yl)pyridin-3-yl)-1-(1,2,3,4-tetrahydroisoquinolin-5-yl)-5-(trifluoromethyl)-1H-pyrazole-4-carboxamide]: 2400 nM and 1410 nM.
With `CN1CCCc2cccc(-n3ncc(C(=O)Nc4cnc(-n5nccn5)c(C#N)c4)c3C(F)(F)F)c21` [Cpd 131, N-(5-cyano-6-(2H-1,2,3-triazol-2-yl)pyridin-3-yl)-1-(1-methyl-1,2,3,4-tetrahydroquinolin-8-yl)-5-(trifluoromethyl)-1H-pyrazole-4-carboxamide], the values for the IC50 in assay [1] and in assay [2] (setting [5]) were 776 nM and 19100 nM, respectively.
For `O=C1NCc2c1cccc2-n1ncc(C(=O)Nc2cnc(-n3nccn3)c(Cl)c2)c1C(F)(F)F` [Cpd 133, N-(5-chloro-6-(2H-1,2,3-triazol-2-yl)pyridin-3-yl)-1-(1-oxoisoindolin-4-yl)-5-(trifluoromethyl)-1H-pyrazole-4-carboxamide], the values for the IC50 in assay [1] and in assay [2] (setting [5]) were 155 nM and 5500 nM, respectively.
